Marks after values point to notes of the source that are not given here.
Key:
Type in all cases: cell-based
[1] = system: P. intermedia virulence genes; assay: Virulence gene expression in multi-species biofilm (SYBR RT-qPCR); conditions: for fold change in DnaJ expression, geometric mean (95% C.I.) / fold change in DnaK expression, geometric mean (95% C.I.) / fold change in ECF expression, geometric mean (95% C.I.) / fold change in GroES expression, geometric mean (95% C.I.) / fold change in HtpG expression, geometric mean (95% C.I.) / fold change in KpsD expression, geometric mean (95% C.I.) / fold change in adpc expression, geometric mean (95% C.I.) / fold change in clpB expression, geometric mean (95% C.I.) / fold change in inpA expression, geometric mean (95% C.I.) / fold change in phg expression, geometric mean (95% C.I.): relative to control = 1
Procedure: (§1) Biofilms are grown vertically on Calcium Deficient Hydroxyapatite (CAD-HA) disks (Hitemco Medical, Old Bethpage, USA) using the Amsterdam Active Adhesion model. Biofilms are allowed to establish during 24 h (37° C., 170 rpm) under microaerophilic conditions (6% O2, 7% CO2, 7% H2, 80% N2). After this 24 h, disks are rinsed 3 times a day for 3 minutes (RT, 250 rpm), for 3 consecutive days, by transferring the lid containing the disks to a new 24-well plate containing 2 mL/well of the appropriate substrate solution. As a negative control, PBS (pH 5.7) without substrate supplementation is used.
(§2) The virulence of the substrate-treated multi-species biofilms are evaluated by analyzing the relative expression of 33 genes that are recognized as being related to some form of virulence and from 4 periodontal pathogens.
(§3) Expression of bacterial virulence genes is analyzed through SYBR RT-qPCR and normalized for bacterial housekeeping gene expression. […] These effects are illustrated in Tables 6a and 6b:
Note, for Table 6d, fold changes in virulence gene expression are determined relatively to the control condition through the 2^^-ΔΔCt method and are shown as the geometric mean (C.I.) (n = 3) of the 2^^-ΔΔCt values. All substrates are dissolved in PBS at a concentration of 1 M (upper part) or 1%(w/v) (lower part). Values between 0 and 1 represent relative downregulation, values >1 represent relative upregulation. […] NADG: N-acetyl-D-glucosamine; C.I.: 95% confidence interval.

[2] = system: F. nucleatum virulence genes; assay: as above; conditions: relative to control = 1, 2^-ΔΔCt, n = 3
Procedure: as §1, §2, §3
Note, for Table 6c, fold changes in virulence gene expression are determined relative to the control condition through the 2^^-ΔΔCt method and are shown as the geometric mean (C.I.) (n = 3) of the 2^^-ΔΔCt values. All substrates are dissolved in PBS at a concentration of 1 M (upper part) or 1%(w/v) (lower part). Values between 0 and 1 represent relative downregulation, values >1 represent relative upregulation. […] NADG: N-acetyl-D-glucosamine; C.I.: 95% confidence interval.

[3] = system: A. actinomycetemcomitans virulence genes; assay: as above
Procedure: as §1, §2, §3
(§4) Note, for Tables 6a and 6b, that fold changes in virulence gene expression are determined relative to the control condition through the 2^^-ΔΔCt method and are shown as the geometric mean (C.I.) (n = 3) of the 2^^-ΔΔ ^Ct values. All substrates are dissolved in PBS at a concentration of 1 M (upper part) or 1%(w/v) (lower part). Values between 0 and 1 represent relative downregulation, values >1 represent relative upregulation. […] NADG: N-acetyl-D-glucosamine; C.I.: 95% confidence interval.

[4] = system: P. gingivalis virulence genes; assay: as above; conditions: relative to control, 2^-ΔΔCt, n = 3
Procedure: as §1, §2, §3, §4

multi-species biofilms = assay: Organic acid levels in supernatant of multi-species biofilms (ion chromatography); conditions: >0 production, <0 consumption, n = 3
Procedure: as §1
Levels of organic acids in the filter sterilized supernatant of the multi-species biofilms are measured using a 761 Compact Ion Chromatograph (Metrhohm, Switzerland) with a Metrosep Organic acids Guard/4.6 guard column. The supernatants from the substrate-treated multi-species biofilms are analyzed to gain more insight into the influence of the substrates on organic acid consumption/production.

[5] = lower part of Table 6d, head prints 1 M (lower part 1%(w/v))
[6] = upper part of Table 6d, substrate 1 M, n = 3
[7] = lower part of Table 6a, substrate 1%(w/v), relative to control = 1
[8] = substrate 1 M, relative to control = 1, 2^-ΔΔCt, n = 3
[9] = substrate 1 M, listed as D-(+)-trehalose

OC[C@H]1O[C@H](O[C@H]2O[C@H](CO)[C@@H](O)[C@H](O)[C@H]2O)[C@H](O)[C@@H](O)[C@@H]1O [D-trehalose, D-(+)-trehalose]
fold change in DnaJ expression, geometric mean (95% C.I.) [1, 5]: 0.62 (0.08-4.67) fold
fold change in DnaK expression, geometric mean (95% C.I.) [1, 5]: 0.78 (0.44-1.36) fold
fold change in ECF expression, geometric mean (95% C.I.) [1, 5]: 0.69 (0.53-0.91) fold
fold change in GroES expression, geometric mean (95% C.I.) [1, 5]: 1.22 (0.61-2.45) fold
fold change in HtpG expression, geometric mean (95% C.I.) [1, 5]: 0.69 (0.42-1.12) fold
fold change in KpsD expression, geometric mean (95% C.I.) [1, 5]: 1.26 (0.52-3.08) fold
fold change in adpc expression, geometric mean (95% C.I.) [1, 5]: 0.64 (0.29-1.4) fold
fold change in clpB expression, geometric mean (95% C.I.) [1, 5]: 1.30 (0.44-3.83) fold
fold change in inpA expression, geometric mean (95% C.I.) [1, 5]: 0.56 (0.31-1.01)^∗ fold
fold change in phg expression, geometric mean (95% C.I.) [1, 5]: 0.86 (0.82-0.89) fold
impact on P. intermedia virulence gene expression ([1]; substrate 1% (w/v)): limited impact
downregulation of P. intermedia virulence gene expression ([1]; substrate 1 M): 5 fold
fold change in DnaJ expression, geometric mean (95% C.I.) [1, 6]: 1.81 (1.21-2.71) fold
fold change in DnaK expression, geometric mean (95% C.I.) [1, 6]: 8.82 (6.83-11.38)^∗ fold
fold change in ECF expression, geometric mean (95% C.I.) [1, 6]: 6.97 (1.65-29.40)^∗ fold
fold change in GroES expression, geometric mean (95% C.I.) [1, 6]: 11.52 (2.46-53.90)^∗ fold
fold change in HtpG expression, geometric mean (95% C.I.) [1, 6]: 0.67 (0.43-1.03) fold
fold change in KpsD expression, geometric mean (95% C.I.) [1, 6]: 0.59 (0.47-0.75) fold
fold change in adpc expression, geometric mean (95% C.I.) [1, 6]: 1.45 (0.76-2.77) fold
fold change in clpB expression, geometric mean (95% C.I.) [1, 6]: 1.90 (0.77-4.68) fold
fold change in inpA expression, geometric mean (95% C.I.) [1, 6]: 0.81 (0.41-1.63) fold
fold change in phg expression, geometric mean (95% C.I.) [1, 6]: 0.20 (0.14-0.29)^∗ fold
fold change in ABC transp. perm. (ABC transporter permease) expression, geometric mean (95% C.I.) ([2]; substrate 1% (w/v)): 0.40 (0.15-1.03)^∗ fold
fold change in EF-G expression, geometric mean (95% C.I.) ([2]; substrate 1% (w/v)): 0.12 (0.03-0.55)^∗ fold
fold change in but. -coA transf. (butyrate-acetoacetate CoA-transferase) expression, geometric mean (95% C.I.) ([2]; substrate 1% (w/v)): 0.40 (0.05-3.27) fold
fold change in hemin receptor expression, geometric mean (95% C.I.) ([2]; substrate 1% (w/v)): 0.16 (0.05-0.50)^∗ fold
fold change in hemolysin expression, geometric mean (95% C.I.) ([2]; substrate 1% (w/v)): 0.65 (0.15-2.70) fold
fold change in ompA expression, geometric mean (95% C.I.) ([2]; substrate 1% (w/v)): 0.84 (0.21-3.35) fold
fold change in transposase expression, geometric mean (95% C.I.) ([2]; substrate 1% (w/v)): 1.02 (0.33-3.12) fold
fold change in ABC transp. perm. (ABC transporter permease) expression, geometric mean (95% C.I.) ([2]; substrate 1 M): 32.18 (21.08-49.14)^∗ fold
fold change in EF-G expression, geometric mean (95% C.I.) ([2]; substrate 1 M): 1.18 (0.46-3.02) fold
fold change in but. -coA transf. (butyrate-acetoacetate CoA-transferase) expression, geometric mean (95% C.I.) ([2]; substrate 1 M): 4.28 (1.32-13.86)* fold
fold change in hemin receptor expression, geometric mean (95% C.I.) ([2]; substrate 1 M): 41.19 (20.31-83.52)^∗ fold
fold change in hemolysin expression, geometric mean (95% C.I.) ([2]; substrate 1 M): 12.15 (7.73-19.10)^∗ fold
fold change in ompA expression, geometric mean (95% C.I.) ([2]; substrate 1 M): 1.23 (0.98-1.53) fold
fold change in transposase expression, geometric mean (95% C.I.) ([2]; substrate 1 M): 106.44 (42.35-267.50)^∗ fold
fold change in aae expression, geometric mean (95% C.I.) [3, 7]: 0.95 (0.33-2.78) fold
fold change in apaH expression, geometric mean (95% C.I.) [3, 7]: 0.64 (0.37-1.10) fold
fold change in cdtB expression, geometric mean (95% C.I.) [3, 7]: 0.67 (0.51-0.89) fold
fold change in emaA expression, geometric mean (95% C.I.) [3, 7]: 0.67 (0.49-0.90) fold
fold change in flp expression, geometric mean (95% C.I.) [3, 7]: 0.48 (0.07-3.50) fold
fold change in ltxA expression, geometric mean (95% C.I.) [3, 7]: 0.08 (0.01-0.73)^∗ fold
fold change in omp29 expression, geometric mean (95% C.I.) [3, 7]: 0.51 (0.19-1.34)^∗ fold
fold change in omp100 expression, geometric mean (95% C.I.) [3, 7]: 0.43 (0.26-0.72)^∗ fold
fold change in orf859 expression, geometric mean (95% C.I.) [3, 7]: 1.04 (0.53-2.03) fold
fold change in pgA expression, geometric mean (95% C.I.) [3, 7]: 0.91 (0.81-1.03) fold
fold change in vapA expression, geometric mean (95% C.I.) [3, 7]: 1.02 (0.87-1.21) fold
fold change in vppA expression, geometric mean (95% C.I.) [3, 7]: 0.48 (0.42-0.55)^∗ fold
fold change in aae expression, geometric mean (95% C.I.) [3, 8]: 0.03 (0.01-0.15)^∗ fold
fold change in apaH expression, geometric mean (95% C.I.) [3, 8]: 0.16 (0.04-0.56)^∗ fold
fold change in cdtB expression, geometric mean (95% C.I.) [3, 8]: 0.08 (0.03-0.21)^∗ fold
fold change in emaA expression, geometric mean (95% C.I.) [3, 8]: 0.11 (0.04-0.32)^∗ fold
fold change in flp expression, geometric mean (95% C.I.) [3, 8]: 0.71 (0.30-1.67) fold
fold change in ltxA expression, geometric mean (95% C.I.) [3, 8]: 0.01 (0.00-0.01)^∗ fold
fold change in omp29 expression, geometric mean (95% C.I.) [3, 8]: 0.74 (0.18-3.00) fold
fold change in omp100 expression, geometric mean (95% C.I.) [3, 8]: 0.09 (0.01-1.11)^∗ fold
fold change in orf859 expression, geometric mean (95% C.I.) [3, 8]: 0.14 (0.02-0.87)^∗ fold
fold change in pgA expression, geometric mean (95% C.I.) [3, 8]: 18.24 (5.89-56.51)^∗ fold
fold change in vapA expression, geometric mean (95% C.I.) [3, 8]: 0.32 (0.08-1.26)^∗ fold
fold change in vppA expression, geometric mean (95% C.I.) [3, 8]: 0.32 (0.01-4.50)^∗ fold
fold change in pgA expression, geometric mean (95% C.I.) ([3]; substrate 1 M, relative to control = 1, 2^-ΔΔCt, n = 3, listed as D-(+)-trehalose): 18.2 fold
fold change in fimA expression, geometric mean (95% C.I.) ([4]; substrate 1 % (w/v)): 1.58 (0.86-2.90) fold
fold change in kgp expression, geometric mean (95% C.I.) ([4]; substrate 1 % (w/v)): 3.24 (1.63-6.44)^∗ fold
fold change in partC expression, geometric mean (95% C.I.) ([4]; substrate 1 % (w/v)): 0.71 (0.37-1.35) fold
fold change in rgpA expression, geometric mean (95% C.I.) ([4]; substrate 1 % (w/v)): 1.49 (0.69-3.22) fold
fold change in kgp expression, geometric mean (95% C.I.) ([4]; substrate 1 % (w/v), listed as D-(+)-trehalose): approximately 3.2 fold
fold change in fimA expression, geometric mean (95% C.I.) ([4]; substrate 1 M): 0.13 (0.02-0.96)^∗ fold
fold change in kgp expression, geometric mean (95% C.I.) ([4]; substrate 1 M): <LOD
fold change in partC expression, geometric mean (95% C.I.) ([4]; substrate 1 M): 0.03 (0.00-0.49)^∗ fold
fold change in rgpA expression, geometric mean (95% C.I.) ([4]; substrate 1 M): 0.00 (0.00-0.02)^∗ fold
acetate level in biofilm supernatant, mean ± SD (multi-species biofilms; substrate 1% (w/v)): 303 ± 13 mg/L
butyrate level in biofilm supernatant, mean ± SD (multi-species biofilms; substrate 1% (w/v)): 1945 ± 9 mg/L
formate level in biofilm supernatant, mean ± SD (multi-species biofilms; substrate 1% (w/v)): 3691 ± 89 mg/L
lactate level in biofilm supernatant, mean ± SD (multi-species biofilms; substrate 1% (w/v)): -125 ± 0 mg/L
propionate level in biofilm supernatant, mean ± SD (multi-species biofilms; substrate 1% (w/v)): 1962 ± 8 mg/L
acetate level in biofilm supernatant, mean ± SD (multi-species biofilms; substrate 1 M): 1021 ± 41^∗ mg/L
butyrate level in biofilm supernatant, mean ± SD (multi-species biofilms; substrate 1 M): 0±0^∗ mg/L
formate level in biofilm supernatant, mean ± SD (multi-species biofilms; substrate 1 M): 75 ± 8^∗ mg/L
lactate level in biofilm supernatant, mean ± SD (multi-species biofilms; substrate 1 M): 4187 ± 200^∗ mg/L
propionate level in biofilm supernatant, mean ± SD (multi-species biofilms; substrate 1 M): 1577 ± 46^∗ mg/L
acetate level in biofilm supernatant, mean ± SD (multi-species biofilms; [9]): 1021 ± 73 mg/L
butyrate level in biofilm supernatant, mean ± SD (multi-species biofilms; [9]): 0 ± 0 mg/L
formate level in biofilm supernatant, mean ± SD (multi-species biofilms; [9]): 75 ± 8 mg/L
lactate level in biofilm supernatant, mean ± SD (multi-species biofilms; [9]): 4187 ± 200 mg/L
propionate level in biofilm supernatant, mean ± SD (multi-species biofilms; [9]): 1577 ± 46 mg/L
